Patent US10092599B2, “Methods for enhancing hematopoietic stem/progenitor cell engraftment” (CHILDREN'S MEDICAL CENTER CORPORATION, priority 2009, dated 2018)

System: hematopoietic stem/progenitor cell engraftment
Assay: adult zebrafish whole kidney marrow competitive transplantation assay
Assay type: in vivo
Conditions: for engraftment signal in pilot screen of 10 bioactive compounds: by four weeks post-transplant, 10 recipients per treatment; for average G/R / percentage of positive recipients: green marrow incubated in vitro 4 hrs, mixed with red marrow 1:4, 4 wpt, compared with DMSO control; for engraftment: by 4 weeks post transplant
Text: A transparent adult zebrafish, casper, was used as a transplantation recipient. Casper is a double homozygous pigment mutant for the nacre allele (devoid of melanocytes) and the roy allele (devoid of iridophores and reduced melanoyctyes), which allows direct visualization of GFP labeled hematopoietic stem cell homing and engraftment without killing the recipients. Two marrows are used: Tg(β-actin:GFP) and Red GloFish® respectively to compete with each other at varying ratios e.g., 1:4, which can generate robust competition between the two donors. In one embodiment, the red marrow is the competitor, as well as an internal control for the transplant. At different timepoints post-transplant, the recipients are anesthetized and two pictures for each recipient are taken by a fluorescence stereomicroscope with GFP/DsRed filters individually. Images are analyzed by software, such as ImageJ, which can quantify the GFP/DsRed fluorescence intensity. The relative engraftment efficiency of the manipulated green marrow is measured by the ratio of the GFP intensity over the DsRed intensity within the same kidney region after background subtraction (labeled as G/R).
A double-color labeled competitive transplantation assay was developed, as shown by the flow chart in FIG. 1A. GFP+ and DsRed2+ marrow cells are isolated from Tg(β-actin:GFP) and commercially available Red GloFish®. The two donor populations are mixed at a certain ratio and injected into sublethally irradiated casper recipients retro-orbitally. The DsRed2+ marrow is used as the competitor. Four weeks later, the engraftment is visualized by fluorescence dissection scope. Pictures of GFP and DsRed engraftment are taken for each recipient and analyzed by ImageJ. The kidney region is manually selected and the average fluorescence intensities of both green and red are measured within the same region. The average background intensity is measured in a region outside the fish, and subtracted from the kidney intensity. The calculation of the relative engraftment is shown by the equation in FIG. 1B.
Adult zebrafish donors are anaesthetized with 0.2% tricaine before blood and kidney collection. Peripheral blood is obtained from adult casper by cardiac puncture with micropipette tips coated with heparin and collected into 0.9×PBS containing 5% FCS. About 3-5 million red blood cells are harvested from one donor. To dissect whole kidney marrow (WKM), a ventral midline incision is made on the donor fish. Whole kidney is dissected out and placed into ice-cold 0.9×PBS containing 5% FCS. Single-cell suspensions are generated by aspiration followed by filtering through a […] nylon mesh filter into a 50 ml conical tube. The flow-though part is diluted with a final volume of 25 ml and centrifuged at 1,500 rpm for 8 minutes. The supernatant is discarded and the pellet cells are resuspended in 1 ml 0.9×PBS containing 5% FCS. The number of viable cells are counted with a hemocytometer. […] Finally, the peripheral blood and kidney marrow cells are centrifuged at 1,500 rpm for 8 minutes, resuspended in 0.9×PBS containing 5% FCS and mixed at a certain ratio and concentration. Casper recipients are anesthetized in tricaine. 4 μl of the cell suspension mixture described above is injected into the circulation retro-orbitally through a Hamilton syringe (26s gauge, 10 μl volume). […] Transplanted recipients can be anesthetized in tricaine and visualized over time on a Zeiss Discovery V8 stereomicroscope with a 1.2× PlanApo lens and GFP/DsRed filters. Images are captured using AxioVision software and for each recipient, two images are taken with GFP or DsRed filter respectively. The images are all saved in .tif format and analyzed using ImageJ software.

| Compound | score in the competitive transplant model (at 3 months) | score in the competitive transplant model (at 4 weeks) | engraftment signal in pilot screen of 10 bioactive compounds | average G/R | percentage of positive recipients | engraftment (green marrow incubated in vitro with 10 μM at room temperature for 2-4 hours) | engraftment (green marrow incubated in vitro with 0.5 μM at room temperature for 2-4 hours) |
| --- | --- | --- | --- | --- | --- | --- | --- |
| CCCCC(C)(C)[C@H](O)/C=C/[C@H]1[C@H](O)CC(=O)[C@@H]1C/C=C\CCCC(=O)O [dmPGE2, 16-,16-dimethyl Prostaglandin E2] | positive | positive | enhanced signal above the rest of the chemicals tested | significantly increased | significantly increased | increase engraftment | – |
| O=C1Nc2cc(Br)ccc2C1=C1Nc2ccccc2C1=NO [BIO, 6-bromorindirubin-3′-oxime] | positive | positive | enhanced signal above the rest of the chemicals tested | significantly increased | significantly increased | – | increase engraftment |
